The record followed here is patent US10875875B2, “Propionic acid derivatives and methods of use thereof” (Aviara Pharmaceuticals, Inc., priority 2017, dated 2020).

This assay deals with α4β1 (Homo sapiens, UniProt P05556+P13612). Nature of the assay: α4β1 integrin inhibition, IC50. The format is binding. The following applies: read-out: α4β1 IC50.

Where only a bound is given, the exact number is not on record here.

Sequence of α4β1 (P13612 34-1032): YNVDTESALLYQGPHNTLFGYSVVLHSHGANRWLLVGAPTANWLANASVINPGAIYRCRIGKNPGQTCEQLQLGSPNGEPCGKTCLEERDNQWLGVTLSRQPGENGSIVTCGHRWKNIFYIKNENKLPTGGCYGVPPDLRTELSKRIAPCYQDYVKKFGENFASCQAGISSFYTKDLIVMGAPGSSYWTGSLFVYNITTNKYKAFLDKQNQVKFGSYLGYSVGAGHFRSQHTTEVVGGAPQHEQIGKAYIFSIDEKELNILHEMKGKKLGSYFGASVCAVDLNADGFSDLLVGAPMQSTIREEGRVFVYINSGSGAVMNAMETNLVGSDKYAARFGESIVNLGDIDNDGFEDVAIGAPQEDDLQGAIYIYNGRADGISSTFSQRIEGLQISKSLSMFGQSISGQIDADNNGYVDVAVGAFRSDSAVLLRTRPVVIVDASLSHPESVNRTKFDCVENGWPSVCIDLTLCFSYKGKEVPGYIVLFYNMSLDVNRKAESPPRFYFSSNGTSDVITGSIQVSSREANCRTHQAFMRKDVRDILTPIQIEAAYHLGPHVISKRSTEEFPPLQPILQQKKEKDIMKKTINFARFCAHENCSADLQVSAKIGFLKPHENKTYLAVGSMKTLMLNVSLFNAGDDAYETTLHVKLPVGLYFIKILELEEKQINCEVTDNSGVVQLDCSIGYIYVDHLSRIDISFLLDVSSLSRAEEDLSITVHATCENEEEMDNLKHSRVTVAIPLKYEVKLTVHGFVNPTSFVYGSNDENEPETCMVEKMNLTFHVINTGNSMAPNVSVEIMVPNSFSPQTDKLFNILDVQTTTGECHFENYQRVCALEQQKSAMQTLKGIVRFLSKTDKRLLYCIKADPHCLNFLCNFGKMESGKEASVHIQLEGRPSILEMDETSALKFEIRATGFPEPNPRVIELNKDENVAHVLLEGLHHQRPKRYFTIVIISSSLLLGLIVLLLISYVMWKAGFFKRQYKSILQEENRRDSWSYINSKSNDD
Sequence of α4β1 (P05556 21-798): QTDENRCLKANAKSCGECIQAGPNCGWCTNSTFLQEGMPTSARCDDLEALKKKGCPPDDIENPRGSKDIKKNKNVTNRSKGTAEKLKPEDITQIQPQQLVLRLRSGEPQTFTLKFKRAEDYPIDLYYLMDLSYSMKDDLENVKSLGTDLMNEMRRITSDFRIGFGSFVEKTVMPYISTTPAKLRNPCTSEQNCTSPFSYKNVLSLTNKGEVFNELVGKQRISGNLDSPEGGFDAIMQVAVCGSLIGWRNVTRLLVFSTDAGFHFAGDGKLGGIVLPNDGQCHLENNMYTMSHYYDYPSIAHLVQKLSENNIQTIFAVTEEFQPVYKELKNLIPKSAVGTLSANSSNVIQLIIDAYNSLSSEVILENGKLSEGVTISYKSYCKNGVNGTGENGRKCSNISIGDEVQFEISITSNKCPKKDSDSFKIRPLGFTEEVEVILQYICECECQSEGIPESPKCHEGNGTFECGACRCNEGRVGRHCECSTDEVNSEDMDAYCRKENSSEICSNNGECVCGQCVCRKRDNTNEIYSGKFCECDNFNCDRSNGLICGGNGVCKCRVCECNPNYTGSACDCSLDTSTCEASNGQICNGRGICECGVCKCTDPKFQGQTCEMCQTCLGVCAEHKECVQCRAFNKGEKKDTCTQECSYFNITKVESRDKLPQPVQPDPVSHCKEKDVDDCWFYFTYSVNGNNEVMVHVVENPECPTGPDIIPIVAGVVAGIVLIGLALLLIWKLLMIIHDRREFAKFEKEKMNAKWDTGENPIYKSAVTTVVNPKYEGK

Consider `CCc1ccccc1-c1cccc([C@H](CC(=O)O)NC(=O)Nc2c(O)c(C)cn(C)c2=O)c1` [1-492, sodium (S)-3-(3-(1,5-dimethyl-4-oxido-2-oxo-1,2-dihydropyridin-3-yl)ureido)-3-(2′-ethylbiphenyl-3-yl)propanoate], for which the half-inhibitory concentration (IC50) is less than 20 nM. As to `Cc1cc(-c2c(C)cccc2C)cc([C@H](CC(=O)O)NC(=O)Nc2c(O)ccn(C)c2=O)c1` [1-573, sodium (S)-3-(3-(1-methyl-4-oxido-2-oxo-1,2-dihydropyridin-3-yl)ureido)-3-(2′,5,6′-trimethylbiphenyl-3-yl)propanoate], the concentration for half-maximal inhibition (IC50) is less than 20 nM. For `Cc1cc(O)c(NC(=O)N[C@@H](CC(=O)O)c2cc(F)cc(-c3cccc(OC(F)(F)F)c3)c2)c(=O)n1C` [1-606, sodium (S)-3-(3-(1,6-dimethyl-4-oxido-2-oxo-1,2-dihydropyridin-3-yl)ureido)-3-(5-fluoro-3′-trifluoromethoxybiphenyl-3-yl)propanoate] the value was less than 20 nM; for `COc1ccc(-c2cccc([C@H](CC(=O)O)NC(=O)Nc3c(O)c(C)cn(C)c3=O)c2)cc1` [1-645, sodium (S)-3-(3-(1,5-dimethyl-4-oxido-2-oxo-1,2-dihydropyridin-3-yl)ureido)-3-(4′-methoxybiphenyl-3-yl)propanoate], less than 200 nM.

For `Cc1cc(-c2ccc(F)cc2F)cc([C@H](CC(=O)O)NC(=O)Nc2c(O)ccn(C)c2=O)c1` [1-574, sodium (S)-3-(2′,4′-difluoro-5-methylbiphenyl-3-yl)-3-(3-(1-methyl-4-oxido-2-oxo-1,2-dihydropyridin-3-yl)ureido)propanoate], the half-inhibitory concentration (IC50) is less than 20 nM. For `Cc1cc(O)c(NC(=O)N[C@@H](CC(=O)O)c2cc(F)cc(-c3ccc(F)cc3F)c2)c(=O)n1C` [1-632, sodium (S)-3-(3-(1,6-dimethyl-4-oxido-2-oxo-1,2-dihydropyridin-3-yl)ureido)-3-(2′,4′,5-trifluorobiphenyl-3-yl)propanoate], the half-maximal inhibitory concentration (IC50) is less than 20 nM. For `Cc1cc(O)c(NC(=O)N[C@@H](CC(=O)O)c2cc(-c3cccc(OC(F)(F)F)c3)ccc2F)c(=O)n1C` [1-595, sodium (S)-3-(3-(1,6-dimethyl-4-oxido-2-oxo-1,2-dihydropyridin-3-yl)ureido)-3-(4-fluoro-3′-(trifluoromethoxy)biphenyl-3-yl)propanoate] the value was less than 20 nM. On to `Cc1cn(C)c(=O)c(NC(=O)N[C@@H](CC(=O)O)c2cccc(-n3c(C)ccc3C)c2)c1O` [1-483, sodium (S)-3-(3-(2,5-dimethyl-1H-pyrrol-1-yl)phenyl)-3-(3-(1,5-dimethyl-4-oxido-2-oxo-1,2-dihydropyridin-3-yl)ureido)propanoate], for which the concentration for half-maximal inhibition (IC50) was less than 20 nM.

For `Cc1ccccc1-c1ccc([C@H](CC(=O)O)NC(=O)Nc2c(O)cc(C)n(C)c2=O)cc1` [1-637, sodium (S)-3-(3-(1,6-dimethyl-4-oxido-2-oxo-1,2-dihydropyridin-3-yl)ureido)-3-(2′-methylbiphenyl-4-yl)propanoate], the IC50 is less than 20 nM. `Cc1ccc([C@H](CC(=O)O)NC(=O)Nc2c(O)ccn(C)c2=O)cc1-c1ccc(F)cc1F` [1-541, sodium (S)-3-(2′,4′-difluoro-6-methylbiphenyl-3-yl)-3-(3-(1-methyl-4-oxido-2-oxo-1,2-dihydropyridin-3-yl)ureido)propanoate]: the IC50 is less than 20 nM.

For the compound `Cn1ccc(O)c(NC(=O)N[C@@H](CC(=O)O)c2cccc(-n3cccc3)c2)c1=O` [1-507, sodium (S)-3-(3-(1H-pyrrol-1-yl)phenyl)-3-(3-(1-methyl-4-oxido-2-oxo-1,2-dihydropyridin-3-yl)ureido)propanoate], the IC50 is less than 20 nM. For the compound `Cc1cccc(C)c1-c1ccc([C@H](CC(=O)O)NC(=O)Nc2c(O)ccn(C)c2=O)cc1` [1-636, sodium (S)-3-(2′,6′-dimethylbiphenyl-4-yl)-3-(3-(1-methyl-4-oxido-2-oxo-1,2-dihydropyridin-3-yl)ureido)propanoate], the half-inhibitory concentration (IC50) was less than 200 nM. For `Cn1ccc(O)c(NC(=O)N[C@@H](CC(=O)O)c2cc(-c3ccc(F)cc3F)cs2)c1=O` [1-523, sodium (S)-3-(4-(2,4-difluorophenyl)thiophen-2-yl)-3-(3-(1-methyl-4-oxido-2-oxo-1,2-dihydropyridin-3-yl)ureido)propanoate], the IC50 was less than 20 nM. With `Cn1ccc(O)c(NC(=O)N[C@@H](CC(=O)O)c2cccc(-c3ccccc3)n2)c1=O` [1-571, sodium (S)-3-(3-(1-methyl-4-oxido-2-oxo-1,2-dihydropyridin-3-yl)ureido)-3-(6-phenylpyridin-2-yl)propanoate], the IC50 is less than 20 nM. As to `Cn1ncc(O)c(NC(=O)N[C@@H](CC(=O)O)c2cccc(-c3ccc(F)cc3F)c2)c1=O` [1-549, sodium (S)-3-(2′,4′-difluorobiphenyl-3-yl)-3-(3-(2-methyl-5-oxido-3-oxo-2,3-dihydropyridazin-4-yl)ureido)propanoate], the half-inhibitory concentration (IC50) was less than 20 nM. Turning to `Cn1ccc(O)c(NC(=O)N[C@@H](CC(=O)O)c2cc(OC(F)(F)F)cc(-c3ccccc3)c2)c1=O` [1-615, sodium (S)-3-(3-(1-methyl-4-oxido-2-oxo-1,2-dihydropyridin-3-yl)ureido)-3-(5-(trifluoromethoxy)biphenyl-3-yl)propanoate], the IC50 was less than 20 nM. Consider `CCn1cc(C)c(O)c(NC(=O)N[C@@H](CC(=O)O)c2cccc(-c3ccc(C)cc3)c2)c1=O` [1-444, sodium (S)-3-(3-(1-ethyl-5-methyl-4-oxido-2-oxo-1,2-dihydropyridin-3-yl)ureido)-3-(4′-methylbiphenyl-3-yl)propanoate], for which the concentration for half-maximal inhibition (IC50) was less than 200 nM.

As for `CCn1cc(C)c(O)c(NC(=O)NC(CC(=O)O)c2cccc(-n3cccc(-c4ccccc4)c3=O)c2)c1=O` (stereo not shown) [1-439, sodium 3-(3-(1-ethyl-5-methyl-4-oxido-2-oxo-1,2-dihydropyridin-3-yl)ureido)-3-(3-(2-oxo-3-phenylpyridin-1(2H)-yl)phenyl)propanoate], the IC50 was greater than 200 nM. For `Cc1cn(C)c(=O)c(NC(=O)NC(CC(=O)O)c2cccc(-c3cc(Cl)c(F)cc3F)c2)c1O` (stereo not shown) [1-503, sodium 3-(5′-chloro-2′,4′-difluorobiphenyl-3-yl)-3-(3-(1,5-dimethyl-4-oxido-2-oxo-1,2-dihydropyridin-3-yl)ureido)propanoate], the IC50 was less than 200 nM. Consider `Cc1cc(O)c(NC(=O)N[C@@H](CC(=O)O)c2cccc(-c3ccccc3)c2F)c(=O)n1C` [1-610, sodium (S)-3-(3-(1,6-dimethyl-4-oxido-2-oxo-1,2-dihydropyridin-3-yl)ureido)-3-(2-fluorobiphenyl-3-yl)propanoate], for which the IC50 is less than 20 nM.

With `COc1cccc(-c2cccc([C@H](CC(=O)O)NC(=O)Nc3c(O)ccn(C)c3=O)c2)n1` [sodium (S)-3-(3-(6-methoxypyridin-2-yl)phenyl)-3-(3-(1-methyl-4-oxido-2-oxo-1,2-dihydropyridin-3-yl)ureido)propanoate], the IC50 was less than 20 nM. To `Cn1ccc(O)c(NC(=O)N[C@@H](CC(=O)O)c2cccc(-n3ccnc3)c2)c1=O` [1-539, sodium (S)-3-(3-(1H-imidazol-1-yl)phenyl)-3-(3-(1-methyl-4-oxido-2-oxo-1,2-dihydropyridin-3-yl)ureido)propanoate] belongs less than 20 nM; to `Cc1cccc(C)c1-c1ccc([C@H](CC(=O)O)NC(=O)Nc2c(O)ccn(C)c2=O)s1` [1-587, sodium (S)-3-(5-(2,6-dimethylphenyl)thiophen-2-yl)-3-(3-(1-methyl-4-oxido-2-oxo-1,2-dihydropyridin-3-yl)ureido)propanoate], less than 20 nM. As to `Cc1cc(O)c(NC(=O)N[C@@H](CC(=O)O)c2ccc(-c3ccc(F)cc3F)cc2)c(=O)n1C` [1-622, sodium (S)-3-(2′,4′-difluorobiphenyl-4-yl)-3-(3-(1,6-dimethyl-4-oxido-2-oxo-1,2-dihydropyridin-3-yl)ureido)propanoate], the IC50 is less than 20 nM. In the case of `Cn1ccc(O)c(NC(=O)N[C@@H](CC(=O)O)c2cc(F)cc(-c3cccc(OC(F)(F)F)c3)c2)c1=O` [1-607, sodium (S)-3-(5-fluoro-3′-(trifluoromethoxy)biphenyl-3-yl)-3-(3-(1-methyl-4-oxido-2-oxo-1,2-dihydropyridin-3-yl)ureido)propanoate], the half-inhibitory concentration (IC50) is less than 20 nM. Take `Cc1ccccc1-c1cc([C@H](CC(=O)O)NC(=O)Nc2c(O)ccn(C)c2=O)ccc1OC(F)(F)F` [1-624, sodium (S)-3-(3-(1-methyl-4-oxido-2-oxo-1,2-dihydropyridin-3-yl)ureido)-3-(2′-methyl-6-(trifluoromethoxy)biphenyl-3-yl)propanoate]: the IC50 is less than 20 nM.

For `Cc1cccc(C)c1-c1cc(F)cc([C@H](CC(=O)O)NC(=O)Nc2c(O)ccn(C)c2=O)c1` [1-600, sodium (S)-3-(5-fluoro-2′,6′-dimethylbiphenyl-3-yl)-3-(3-(1-methyl-4-oxido-2-oxo-1,2-dihydropyridin-3-yl)ureido)propanoate], the IC50 was less than 20 nM. To `Cc1cn(C)c(=O)c(NC(=O)NC(CC(=O)O)c2cccc(-c3ccccc3Cl)c2)c1O` (stereo not shown) [1-473, sodium 3-(2′-chlorobiphenyl-3-yl)-3-(3-(1,5-dimethyl-4-oxido-2-oxo-1,2-dihydropyridin-3-yl)ureido)propanoate] belongs less than 20 nM. Regarding `COc1ccc(-c2cccc([C@H](CC(=O)O)NC(=O)Nc3c(O)c(C)cn(C)c3=O)c2)cn1` [1-476, sodium (S)-3-(3-(1,5-dimethyl-4-oxido-2-oxo-1,2-dihydropyridin-3-yl)ureido)-3-(3-(6-methoxypyridin-3-yl)phenyl)propanoate], the IC50 is less than 20 nM. As to `Cn1ccc(O)c(NC(=O)N[C@@H](CC(=O)O)c2cccc(-n3cccn3)c2)c1=O` [1-522, sodium (S)-3-(3-(1H-pyrazol-1-yl)phenyl)-3-(3-(1-methyl-4-oxido-2-oxo-1,2-dihydropyridin-3-yl)ureido)propanoate], the IC50 is less than 20 nM. Regarding `Cn1ccc(O)c(NC(=O)N[C@@H](CC(=O)O)c2ccc(OC(F)(F)F)c(-c3ccccc3)c2)c1=O` [1-625, sodium (S)-3-(3-(1-methyl-4-oxido-2-oxo-1,2-dihydropyridin-3-yl)ureido)-3-(6-(trifluoromethoxy)biphenyl-3-yl)propanoate], the IC50 was less than 200 nM.

In general, IC50 refers to the concentration at which inhibition is half-maximal.
